ChEMBL document CHEMBL1909046, “DrugMatrix in vitro pharmacology data”

Experiments:
[1] = DRUGMATRIX: Serotonin (5-Hydroxytryptamine) 5-HT3 radioligand binding (ligand: [3H] GR-65630); type: cell membranes, Membrane; details: hek293; Not Active = under 50% inhibition at 10 µM
[2] = target: Mu-type opioid receptor (Homo sapiens, UniProt P35372); test: DRUGMATRIX: Opiate mu (OP3, MOP) radioligand binding (ligand: [3H] Diprenorphine); type: cell membranes, CHO-K1, Membrane; details: Not Active = under 50% inhibition at 10 µM
[3] = target: Insulin receptor (Rattus norvegicus, UniProt P15127); type: cell membranes, Wistar, Liver, Membrane; note: in other assays of this panel Not Active means under 50% inhibition at 10 µM
[4] = target: T1, 5-hydroxytryptamine receptor 1A (Rattus norvegicus, UniProt P19327); type: cell membranes, CHO-K1, Membrane; note: in other assays of this panel Not Active means under 50% inhibition at 10 µM
T1 sequence (P19327 whole entry): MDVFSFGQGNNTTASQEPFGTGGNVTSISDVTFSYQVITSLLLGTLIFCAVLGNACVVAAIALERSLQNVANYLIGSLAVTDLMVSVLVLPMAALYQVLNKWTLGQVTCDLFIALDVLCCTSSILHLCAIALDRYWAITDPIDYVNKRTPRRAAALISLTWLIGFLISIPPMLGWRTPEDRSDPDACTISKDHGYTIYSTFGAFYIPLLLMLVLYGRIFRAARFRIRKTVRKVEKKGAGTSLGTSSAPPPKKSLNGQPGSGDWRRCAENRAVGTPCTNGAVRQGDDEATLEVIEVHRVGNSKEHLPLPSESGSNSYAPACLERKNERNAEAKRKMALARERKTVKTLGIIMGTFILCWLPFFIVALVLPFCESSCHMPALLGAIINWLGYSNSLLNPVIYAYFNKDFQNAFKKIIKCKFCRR

[5] = target: Mitogen-activated protein kinase 1 (Homo sapiens, UniProt P28482); test: DRUGMATRIX: Protein Serine/Threonine Kinase, ERK2 enzyme inhibition (substrate: Myelin Basic Protein); design: species or system Escherichia coli; details: Not Active = under 50% inhibition at 10 µM
[6] = target: T2, Cholecystokinin receptor type A (Homo sapiens, UniProt P32238); type: cell membranes, Membrane; details: 1321-n1; note: in other assays of this panel Not Active means under 50% inhibition at 10 µM
T2 sequence (P32238 whole entry): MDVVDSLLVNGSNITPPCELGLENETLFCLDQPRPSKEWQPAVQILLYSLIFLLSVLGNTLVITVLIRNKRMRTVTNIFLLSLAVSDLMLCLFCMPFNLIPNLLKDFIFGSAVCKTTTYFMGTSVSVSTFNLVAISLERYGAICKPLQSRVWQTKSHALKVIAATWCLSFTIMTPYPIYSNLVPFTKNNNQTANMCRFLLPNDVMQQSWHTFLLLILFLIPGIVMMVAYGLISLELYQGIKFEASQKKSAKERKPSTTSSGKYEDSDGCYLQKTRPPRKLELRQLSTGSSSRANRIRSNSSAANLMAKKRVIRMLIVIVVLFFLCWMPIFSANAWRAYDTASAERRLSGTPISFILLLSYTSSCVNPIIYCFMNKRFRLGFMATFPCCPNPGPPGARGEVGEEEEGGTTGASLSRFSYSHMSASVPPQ

Mu-type opioid receptor, sequence (P35372 whole entry): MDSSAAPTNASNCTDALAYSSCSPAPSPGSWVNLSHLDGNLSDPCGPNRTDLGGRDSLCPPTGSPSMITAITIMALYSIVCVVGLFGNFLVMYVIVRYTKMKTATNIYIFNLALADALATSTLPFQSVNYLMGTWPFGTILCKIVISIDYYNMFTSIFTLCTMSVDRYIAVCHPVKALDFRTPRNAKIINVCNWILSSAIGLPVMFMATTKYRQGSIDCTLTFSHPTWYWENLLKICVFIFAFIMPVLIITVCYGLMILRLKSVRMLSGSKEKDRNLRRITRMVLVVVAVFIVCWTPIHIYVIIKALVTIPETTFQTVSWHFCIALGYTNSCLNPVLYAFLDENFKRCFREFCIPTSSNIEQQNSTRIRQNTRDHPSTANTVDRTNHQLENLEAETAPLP
Insulin receptor, sequence (P15127 27-759 limits assumed): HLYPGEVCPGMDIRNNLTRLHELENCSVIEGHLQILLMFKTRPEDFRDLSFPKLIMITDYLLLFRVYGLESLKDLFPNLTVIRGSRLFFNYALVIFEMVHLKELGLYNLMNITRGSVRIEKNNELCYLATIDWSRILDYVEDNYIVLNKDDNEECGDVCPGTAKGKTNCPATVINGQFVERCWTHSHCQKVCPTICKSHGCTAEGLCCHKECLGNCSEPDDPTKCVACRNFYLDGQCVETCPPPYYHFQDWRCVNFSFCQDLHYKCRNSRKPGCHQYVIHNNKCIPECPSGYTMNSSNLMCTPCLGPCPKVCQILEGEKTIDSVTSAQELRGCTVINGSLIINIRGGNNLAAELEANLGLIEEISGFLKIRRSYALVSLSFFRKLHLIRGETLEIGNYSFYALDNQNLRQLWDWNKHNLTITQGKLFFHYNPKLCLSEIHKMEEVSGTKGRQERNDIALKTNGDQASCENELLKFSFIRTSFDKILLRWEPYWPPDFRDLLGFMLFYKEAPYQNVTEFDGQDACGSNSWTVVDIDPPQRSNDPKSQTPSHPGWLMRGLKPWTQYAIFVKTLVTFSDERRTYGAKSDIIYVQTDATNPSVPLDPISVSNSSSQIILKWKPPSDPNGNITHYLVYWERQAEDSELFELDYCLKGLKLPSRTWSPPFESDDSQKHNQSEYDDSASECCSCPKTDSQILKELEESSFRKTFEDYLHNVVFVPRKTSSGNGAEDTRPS
Insulin receptor, sequence (P15127 764-1383 limits assumed): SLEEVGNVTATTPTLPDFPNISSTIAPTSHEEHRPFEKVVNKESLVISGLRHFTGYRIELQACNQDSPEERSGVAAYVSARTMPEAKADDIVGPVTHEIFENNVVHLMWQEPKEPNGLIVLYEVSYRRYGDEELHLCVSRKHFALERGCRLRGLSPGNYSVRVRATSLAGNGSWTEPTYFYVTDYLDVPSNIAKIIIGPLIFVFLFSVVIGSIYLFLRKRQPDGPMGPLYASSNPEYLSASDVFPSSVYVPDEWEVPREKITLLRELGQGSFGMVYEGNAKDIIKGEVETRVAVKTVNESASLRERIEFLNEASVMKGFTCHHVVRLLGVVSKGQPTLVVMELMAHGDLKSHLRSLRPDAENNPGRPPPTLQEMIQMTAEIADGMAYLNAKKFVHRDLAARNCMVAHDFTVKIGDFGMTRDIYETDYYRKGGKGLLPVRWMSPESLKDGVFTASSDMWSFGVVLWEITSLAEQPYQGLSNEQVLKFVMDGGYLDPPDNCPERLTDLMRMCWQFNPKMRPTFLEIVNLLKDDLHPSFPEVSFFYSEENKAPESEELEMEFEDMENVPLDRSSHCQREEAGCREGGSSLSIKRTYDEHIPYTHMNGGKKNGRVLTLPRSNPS
Mitogen-activated protein kinase 1, sequence (P28482 whole entry): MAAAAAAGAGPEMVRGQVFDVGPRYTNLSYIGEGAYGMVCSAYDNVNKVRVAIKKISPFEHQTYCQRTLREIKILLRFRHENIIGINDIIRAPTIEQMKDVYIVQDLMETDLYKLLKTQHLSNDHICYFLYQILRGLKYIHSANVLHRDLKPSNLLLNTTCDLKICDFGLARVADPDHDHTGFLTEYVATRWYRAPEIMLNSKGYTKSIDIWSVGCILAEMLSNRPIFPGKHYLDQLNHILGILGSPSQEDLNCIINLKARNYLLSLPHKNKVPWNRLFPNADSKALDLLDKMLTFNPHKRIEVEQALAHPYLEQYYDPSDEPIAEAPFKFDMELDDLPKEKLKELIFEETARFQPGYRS

| Structure (SMILES) | IC50 [1] | Ki [1] | IC50 ([2]; cho-k1) | IC50 [3] | IC50 ([4]; cho-k1) | IC50 [5] | IC50 [6] | Ki [2] | IC50 ([2]; read-out: IC50) | IC50 ([4]; read-out: IC50) | Ki ([4]; read-out: Ki) |
| --- | --- | --- | --- | --- | --- | --- | --- | --- | --- | --- | --- |
| CCOC(=O)[C@H](CCc1ccccc1)N[C@@H](C)C(=O)N1Cc2ccccc2C[C@H]1C(=O)O | Not Active | Not Active | Not Active | Not Active | Not Active | Not Active | Not Active |  |  |  |  |
| CC[C@H]1OC(=O)[C@H](C)[C@@H](O[C@H]2C[C@@](C)(OC)[C@@H](O)[C@H](C)O2)[C@H](C)[C@@H](O[C@@H]2O[C@H](C)C[C@H](N(C)C)[C@H]2O)[C@](C)(OC)C[C@@H](C)C(=O)[C@H](C)[C@@H](O)[C@]1(C)O [CLARITHROMYCIN] | Not Active | Not Active | Not Active | Not Active | Not Active | Not Active | Not Active |  |  |  |  |
| CC(=O)O[C@]1(C(C)=O)CC[C@H]2[C@@H]3C=C(C)C4=CC(=O)CC[C@]4(C)[C@H]3CC[C@@]21C [MEGESTROL ACETATE] | Not Active | Not Active | Not Active | Not Active | Not Active | Not Active | Not Active |  |  |  |  |
| CC(=O)O[C@]1(C(C)=O)CC[C@H]2[C@@H]3C=C(Cl)C4=CC(=O)[C@@H]5C[C@@H]5[C@]4(C)[C@H]3CC[C@@]21C [CYPROTERONE ACETATE] | Not Active | Not Active |  | Not Active | Not Active | Not Active | Not Active | 0.886 µM | 2.18 µM |  |  |
| Cc1cccc(Nc2ccccc2C(=O)O)c1C [MEFENAMIC ACID] | Not Active | Not Active | Not Active | Not Active | Not Active | Not Active | Not Active |  |  |  |  |
| NC[C@@H]1O[C@H](O[C@H]2[C@@H](O)[C@H](O[C@@H]3[C@@H](O)[C@H](N)C[C@H](N)[C@H]3O[C@H]3O[C@H](CN)[C@@H](O)[C@H](O)[C@H]3N)O[C@@H]2CO)[C@H](N)[C@@H](O)[C@@H]1O [FRAMYCETIN] | Not Active | Not Active | Not Active | Not Active | Not Active | Not Active | Not Active |  |  |  |  |
| O=C(O)c1cccnc1 [NIACIN] | Not Active | Not Active | Not Active | Not Active | Not Active | Not Active | Not Active |  |  |  |  |
| CC[C@]1(O)CC[C@H]2[C@@H]3CCC4=CCCC[C@@H]4[C@H]3CC[C@@]21C | Not Active | Not Active | Not Active | Not Active | Not Active | Not Active | Not Active |  |  |  |  |
| COc1cc(CNC(=O)CCCC/C=C/C(C)C)ccc1O [CAPSAICIN] | Not Active | Not Active | Not Active | Not Active | Not Active | Not Active | Not Active |  |  |  |  |
| CN(C(=O)CCCOc1ccc2[nH]c(=O)ccc2c1)C1CCCCC1 [CILOSTAMIDE] | Not Active | Not Active | Not Active | Not Active | Not Active | Not Active | Not Active |  |  |  |  |
| OCCN1CCN(CCCN2c3ccccc3Sc3ccc(Cl)cc32)CC1 [PERPHENAZINE] | Not Active | Not Active | Not Active | Not Active | Not Active | Not Active | Not Active |  |  |  |  |
| COC(=O)c1ccccc1O [METHYL SALICYLATE] | Not Active | Not Active | Not Active | Not Active | Not Active | Not Active | Not Active |  |  |  |  |
| COc1ccccc1OCC(O)COC(N)=O (stereo not given) [METHOCARBAMOL] | Not Active | Not Active | Not Active | Not Active | Not Active | Not Active | Not Active |  |  |  |  |
| CC(C(=O)O)c1ccc(-c2ccccc2)c(F)c1 (stereo not given) [FLURBIPROFEN] | Not Active | Not Active | Not Active | Not Active | Not Active | Not Active | Not Active |  |  |  |  |
| Cc1c(F)c(N2CCNC(C)C2)cc2c1c(=O)c(C(=O)O)cn2C1CC1 (stereo not given) [GREPAFLOXACIN] | Not Active | Not Active | Not Active | Not Active | Not Active | Not Active | Not Active |  |  |  |  |
| Oc1ccccc1O [CATECHOL] | Not Active | Not Active | Not Active | Not Active | Not Active | Not Active | Not Active |  |  |  |  |
| O=P1(N(CCCl)CCCl)NCCCO1 (stereo not given) [CYCLOPHOSPHAMIDE ANHYDROUS] | Not Active | Not Active | Not Active | Not Active | Not Active | Not Active | Not Active |  |  |  |  |
| CS(=O)(=O)OCCCCOS(C)(=O)=O [BUSULFAN] | Not Active | Not Active | Not Active | Not Active | Not Active | Not Active | Not Active |  |  |  |  |
| CC(C)(CO)C(O)C(=O)NCCCO (stereo not given) [PANTHENOL] | Not Active | Not Active | Not Active | Not Active | Not Active | Not Active | Not Active |  |  |  |  |
| O=C(O)c1cc(=O)c2c(OCC(O)COc3cccc4oc(C(=O)O)cc(=O)c34)cccc2o1 [CROMOLYN] | Not Active | Not Active | Not Active | Not Active | Not Active | Not Active | Not Active |  |  |  |  |
| Nc1nc(Cl)nc2c1ncn2[C@H]1C[C@H](O)[C@@H](CO)O1 [CLADRIBINE] | Not Active | Not Active | Not Active | Not Active | Not Active | Not Active | Not Active |  |  |  |  |
| CN1C[C@H](C(=O)N[C@]2(C)O[C@@]3(O)[C@@H]4CCCN4C(=O)[C@H](Cc4ccccc4)N3C2=O)C[C@@H]2c3cccc4[nH]cc(c34)C[C@H]21 [DIHYDROERGOTAMINE] | Not Active | Not Active | Not Active | Not Active |  | Not Active | Not Active |  |  | 0.659 nM | 0.377 nM |
| CC[C@H](C)C(=O)O[C@H]1C[C@@H](C)C=C2C=C[C@H](C)[C@H](CC[C@@H]3C[C@@H](O)CC(=O)O3)[C@H]21 [LOVASTATIN] | Not Active | Not Active | Not Active | Not Active | Not Active | Not Active | Not Active |  |  |  |  |
| CC[C@H](C)C(=O)O[C@H]1C[C@H](O)C=C2C=C[C@H](C)[C@H](CC[C@@H](O)C[C@@H](O)CC(=O)O)[C@H]21 [PRAVASTATIN] | Not Active | Not Active | Not Active | Not Active | Not Active | Not Active | Not Active |  |  |  |  |
| CCOC(=O)n1ccn(C)c1=S [CARBIMAZOLE] | Not Active | Not Active | Not Active | Not Active | Not Active | Not Active | Not Active |  |  |  |  |
| C#C[C@]1(O)CC[C@H]2[C@@H]3CCC4=Cc5oncc5C[C@]4(C)[C@H]3CC[C@@]21C [DANAZOL] | Not Active | Not Active |  | Not Active | Not Active | Not Active | Not Active | 5.72 µM | 14.1 µM |  |  |
